Results from patent US8138197B2, “Spirochromanon derivatives” (MSD K.K., priority 2007, dated 2012).

Key:
human ACC1 = human ACC1 (Homo sapiens, UniProt Q13085); assay: Acetyl CoA carboxylase (ACC) activity inhibition test, human ACC1; type: biochemical; conditions: 1 μmol/liter compound; [14C] bicarbonate fixation, 37° C., 40 minutes; read-out: Inhibition (%) by 1 μmol/liter Chemical, human ACC1
Protocol: (§1) A. Pharmacological Test Example (Acetyl CoA Carboxylase (ACC) Activity Inhibition Test)
(§2) A test compound is dissolved in dimethyl sulfoxide (DMSO) to a concentration of 10 mM and then diluted with DMSO to give a 100-fold concentrated solution of the compound compared with target assay concentration. The ACC enzyme activity inhibition test is carried out according to a modification of Thampy & Wakil's method (J. Biol. Chem., Vol. 260, pp. 6318-6323 (1985)). Concretely, 0.8 μl of the diluted test compound is added to each well of 96-well assay plate (Perkin Elmer Opti Plate), then 40 μl of a substrate solution (50 mM Hepes sodium (pH 7.5), 2 mM DTT, 10 mM ATP, 500 μM acetyl CoA, 0.17 mM NaH[^14C]O3 (58 mCi/mmol, by Amersham), 8 mM NaHCO3) is added to each well, and 40 μL of an enzyme solution ([…] human ACC1 or human ACC2, 50 mM Hepes sodium (pH 7.5), 2 mM DTT, 40 mM MgCl2, 40 mM tripotassium citrate 1 mg/ml fetal bovine serum albumin) is added thereto. Then, the upper side of the plate is sealed up, and the plate is incubated with gently stirring at 37° C. for 40 minutes. Next, 20 μl of 1 N HCl is added to each well to stop the enzyme reaction, and the assay plate is stirred overnight to remove the unreacted NaH[^14C]O3. Next, 100 μl of a scintillator (Perkin Elmer's Microscinti 40) is added to each well and the plate is stirred, then the radioactivity of the fixed [^14C] is counted using a microplate scintillation counter (Perkin Elmer's Topcount), the radioactivity of which represents the enzyme activity in each well. The human ACC1 and human ACC2 enzyme-inhibition activities of the test compounds are calculated, based on the radioactivity of the well added by DMSO without test compound as a control.

human ACC2 = human ACC2 (Homo sapiens, UniProt O00763); assay: Acetyl CoA carboxylase (ACC) activity inhibition test, human ACC2; type: biochemical; conditions: 1 μmol/liter compound; [14C] bicarbonate fixation, 37° C., 40 minutes; read-out: Inhibition (%) by 1 μmol/liter Chemical, human ACC2
Chain of human ACC2 (O00763 whole entry): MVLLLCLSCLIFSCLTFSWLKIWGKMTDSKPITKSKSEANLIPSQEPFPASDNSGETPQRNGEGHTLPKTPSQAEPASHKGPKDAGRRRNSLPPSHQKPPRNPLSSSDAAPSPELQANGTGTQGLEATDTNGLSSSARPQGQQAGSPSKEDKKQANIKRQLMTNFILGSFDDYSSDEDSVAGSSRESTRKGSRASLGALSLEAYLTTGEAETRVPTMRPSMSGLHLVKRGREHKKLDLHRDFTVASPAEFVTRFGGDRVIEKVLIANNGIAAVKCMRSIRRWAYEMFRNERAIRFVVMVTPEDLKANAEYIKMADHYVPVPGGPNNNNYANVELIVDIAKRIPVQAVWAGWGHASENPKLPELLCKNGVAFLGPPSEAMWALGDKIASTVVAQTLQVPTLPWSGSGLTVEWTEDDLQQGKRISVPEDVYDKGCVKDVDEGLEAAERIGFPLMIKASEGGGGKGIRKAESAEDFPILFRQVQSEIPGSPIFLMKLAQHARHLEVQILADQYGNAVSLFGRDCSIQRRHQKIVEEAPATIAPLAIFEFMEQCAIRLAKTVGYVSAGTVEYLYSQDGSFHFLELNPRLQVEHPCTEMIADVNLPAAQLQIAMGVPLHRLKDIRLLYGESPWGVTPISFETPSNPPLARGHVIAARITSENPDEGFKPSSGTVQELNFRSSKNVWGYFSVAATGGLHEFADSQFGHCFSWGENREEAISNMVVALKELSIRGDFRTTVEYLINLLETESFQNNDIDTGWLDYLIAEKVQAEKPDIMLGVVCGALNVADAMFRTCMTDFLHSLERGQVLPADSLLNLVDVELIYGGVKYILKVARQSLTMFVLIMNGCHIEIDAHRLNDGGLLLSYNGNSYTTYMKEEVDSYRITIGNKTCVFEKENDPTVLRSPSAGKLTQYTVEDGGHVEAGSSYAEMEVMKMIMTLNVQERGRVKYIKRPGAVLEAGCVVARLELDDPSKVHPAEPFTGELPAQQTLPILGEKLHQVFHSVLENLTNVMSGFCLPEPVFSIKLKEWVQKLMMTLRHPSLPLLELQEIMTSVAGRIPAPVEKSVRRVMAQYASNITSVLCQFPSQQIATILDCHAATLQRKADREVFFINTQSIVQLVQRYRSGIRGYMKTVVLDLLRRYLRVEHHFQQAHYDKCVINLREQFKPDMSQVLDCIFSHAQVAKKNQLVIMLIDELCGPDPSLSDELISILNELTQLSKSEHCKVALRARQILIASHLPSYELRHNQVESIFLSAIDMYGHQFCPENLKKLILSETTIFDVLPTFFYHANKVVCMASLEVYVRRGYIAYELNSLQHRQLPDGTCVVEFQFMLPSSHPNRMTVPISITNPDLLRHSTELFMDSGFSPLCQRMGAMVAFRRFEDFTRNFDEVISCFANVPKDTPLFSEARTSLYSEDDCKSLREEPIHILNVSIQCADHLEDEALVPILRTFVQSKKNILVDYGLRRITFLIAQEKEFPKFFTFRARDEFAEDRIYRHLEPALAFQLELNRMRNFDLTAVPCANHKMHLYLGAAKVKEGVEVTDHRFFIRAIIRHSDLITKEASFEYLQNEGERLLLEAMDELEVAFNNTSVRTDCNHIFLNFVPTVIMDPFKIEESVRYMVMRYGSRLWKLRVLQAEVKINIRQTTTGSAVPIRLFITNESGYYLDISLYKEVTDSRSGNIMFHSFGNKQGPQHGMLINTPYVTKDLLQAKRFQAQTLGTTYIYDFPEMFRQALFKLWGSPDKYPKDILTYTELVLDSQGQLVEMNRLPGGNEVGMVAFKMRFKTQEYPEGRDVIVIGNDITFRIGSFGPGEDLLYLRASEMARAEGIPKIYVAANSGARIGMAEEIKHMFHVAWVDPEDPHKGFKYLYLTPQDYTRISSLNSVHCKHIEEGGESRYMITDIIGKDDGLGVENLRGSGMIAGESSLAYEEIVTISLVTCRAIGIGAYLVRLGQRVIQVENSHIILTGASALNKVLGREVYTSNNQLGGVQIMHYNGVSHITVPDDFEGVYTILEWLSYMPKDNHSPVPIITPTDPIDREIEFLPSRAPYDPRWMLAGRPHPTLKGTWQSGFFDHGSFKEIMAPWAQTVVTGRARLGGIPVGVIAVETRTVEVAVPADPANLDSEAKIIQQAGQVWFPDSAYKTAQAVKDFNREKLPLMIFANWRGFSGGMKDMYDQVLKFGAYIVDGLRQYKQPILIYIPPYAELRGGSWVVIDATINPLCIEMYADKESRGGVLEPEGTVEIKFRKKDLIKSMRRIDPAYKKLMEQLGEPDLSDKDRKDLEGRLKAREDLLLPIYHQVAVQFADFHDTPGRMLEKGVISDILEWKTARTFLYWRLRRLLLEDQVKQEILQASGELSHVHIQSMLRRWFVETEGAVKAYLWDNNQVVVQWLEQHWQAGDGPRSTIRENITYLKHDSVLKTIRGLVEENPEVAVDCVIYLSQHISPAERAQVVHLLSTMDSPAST
Protocol: as §1, §2

| Compound | inhibition at 1 µM (human ACC1) [%] | inhibition at 1 µM (human ACC2) [%] |
| --- | --- | --- |
| COc1cc(C(=O)N2CCC3(CC2)CC(=O)c2cc(-c4nnn[nH]4)ccc2O3)cc(OC)c1-c1ccccc1 [Example 5] | 94 | 97 |
| Cn1cc(-c2ccc3c(c2)C(=O)CC2(CCN(C(=O)c4cc(-c5nnn[nH]5)c5ccn(C6CC6)c5c4)CC2)O3)cn1 [Example 42, 1′-{[1-Cyclopropyl-4-(tetrazol-5-yl)-1H-indol-6-yl]carbonyl}-6-(1-methyl-1H-pyrazol-4-yl)spiro[chroman-2,4′-piperidin]-4-one] | 98 | 99 |
| Cc1nn(-c2ccccn2)c2sc(C(=O)N3CCC4(CC3)CC(=O)c3cc(-c5nnn[nH]5)ccc3O4)cc12 [Example 51, 1′-[(3-Methyl-1-pyridin-2-yl-1H-thieno[2,3-c]pyrazol-5-yl)carbonyl]-6-(tetrazol-5-yl)spiro[chroman-2,4′-piperidin]-4-one] | 98 | 89 |
| Cn1nc(-c2ccccc2)c2ccc(C(=O)N3CCC4(CC3)CC(=O)c3cc(-c5nnn[nH]5)ccc3O4)cc21 [Example 56, 1′-[(1-Methyl-3-phenyl-1H-indazol-6-yl)carbonyl]-6-(tetrazol-5-yl)spiro[chroman-2,4′-piperidin]-4-one] | 99 | 98 |
| CCOc1cc(C(=O)N2CCC3(CC2)CC(=O)c2cc(-c4nnn(COC(=O)C(C)(C)C)n4)ccc2O3)cc(OC)c1-c1cnn(C)c1 [Example 63, (5-{1′-[3-ethoxy-5-methoxy-4-(1-methyl-1H-pyrazol-4-yl)benzoyl]-4-oxospiro[chroman-2,4′-piperidin]-6-yl}-2H-tetrazol-2-yl)methylpivalate] | 93 | 97 |
| COc1cc(C(=O)N2CCC3(CC2)CC(=O)c2cc(-c4ccc(C(N)=O)cn4)ccc2O3)cc(OC)c1-c1cnn(C)c1 [Example 68, 6-{1′-[3,5-dimethoxy-4-(1-methyl-1H-pyrazol-4-yl)benzoyl]-4-oxospiro[chroman-2,4′-piperidin]-6-yl}nicotinamide] | 99 | 99 |
| CCOc1cc(C(=O)N2CCC3(CC2)CC(=O)c2cc(-c4ccc(C(N)=O)cn4)ccc2O3)cc(OC)c1-c1cnn(C)c1 [Example 77, 6-{1′-[3-ethoxy-5-methoxy-4-(1-methyl-1H-pyrazol-4-yl)benzoyl]-4-oxospiro[chroman-2,4′-piperidin]-6-yl}nicotinamide] | 99 | 99 |
| CCOc1cc(C(=O)N2CCC3(CC2)CC(=O)c2cc(-c4cnn(C)c4)ccc2O3)cc(OC)c1-c1cnn(C)c1 [Example 79, 1′-[3-Ethoxy-5-methoxy-4-(1-methyl-1H-pyrazol-4-yl)benzoyl]-6-(1-methyl-1H-pyrazol-4-yl)spiro[chroman-2,4′-piperidin]4-one] | 99 | 99 |

Other lines, results leading:

| inhibition at 1 µM (human ACC1) [%] | inhibition at 1 µM (human ACC2) [%] | Compound |
| --- | --- | --- |
| 100 | 99 | CCOc1cc(C(=O)N2CCC3(CC2)CC(=O)c2cc(-c4nnn[nH]4)ccc2O3)cc(OCC)c1-c1cnn(C)c1 [Example 12, 1′-{[3,5-Diethoxy-4-(1-methyl-1H-pyrazol-4-yl)phenyl]carbonyl}-6-(tetrazol-5-yl)spiro[chroman-2,4′-piperidin]-4-one] |
| 100 | 99 | CCOc1cc(C(=O)N2CCC3(CC2)CC(=O)c2cc(-c4cncc(C(=O)O)c4)ccc2O3)cc(OCC)c1-c1cnn(C)c1 [Example 25, 5-(1′-{[3,5-Diethoxy-4-(1-methyl-1H-pyrazol-4-yl)phenyl]carbonyl}-4-oxospiro[chroman-2,4′-piperidin]-6-yl)pyridine-3-carboxylic acid] |
| 99 | 99 | CCOc1cc(C(=O)N2CCC3(CC2)CC(=O)c2cc(-c4nnn[nH]4)ccc2O3)cc(OC)c1-c1cnn(C)c1 [Example 29, 1′-{[3-Ethoxy-5-methoxy-4-(1-methyl-1H-pyrazol-4-yl)phenyl]carbonyl}-6-(tetrazol-5-yl)spiro[chroman-2,4′-piperidin]-4-one] |
| 100 | 99 | CCOc1cc(C(=O)N2CCC3(CC2)CC(=O)c2cc(-c4ccnc(C(=O)O)c4)ccc2O3)cc(OCC)c1-c1cnn(C)c1 [Example 37, 4-(1′-{[3,5-Diethoxy-4-(1-methyl-1H-pyrazol-4-yl)phenyl]carbonyl}-4-oxospiro[chroman-2,4′-piperidin]-6-yl)pyridine-2-carboxylic acid] |
| 99 | 99 | CCOc1cc(C(=O)N2CCC3(CC2)CC(=O)c2cc(-c4ccc(C(=O)O)cn4)ccc2O3)cc(OCC)c1-c1cnn(C)c1 [Example 71, Sodium 6-{1′-[3,5-diethoxy-4-(1-methyl-1H-pyrazol-4-yl)benzoyl]-4-oxospiro[chroman-2,4′-piperidin]-6-yl}nicotinate] |
